Results taken from US6258786A, “13-dihydro-3' aziridino anthracyclines” (Pharmacia & Upjohn S.p.A., priority 1998, dated 2001).

Columns and labels:
Format in all cases: cell-based
L1210 = assay: In vitro cytotoxicity, growth inhibition by counting surviving cells, L1210; conditions: Mus musculus, cells incubated with the compound for 1 h, at least two experiments, read-out: IC50 (50% inhibitory concentration), Mean ± SE
Experimental: (§1) 1. The results of in vivo test of Ia on disseminated P388/DX murine leukemia are shown in Tab.2.
(§2) ^1 Cells incubated with the compound for 1 h.
(§3) ^2 50% inhibitory concentration represents the mean ± SE from
(§4) dose-response curves of at least two experiments
(§5) ^3 Growth inhibition determined by counting surviving cells.

JURKAT = assay: In vitro cytotoxicity, growth inhibition by counting surviving cells, JURKAT; conditions: Homo sapiens, cells incubated with the compound for 1 h, at least two experiments, read-out: IC50 (50% inhibitory concentration), Mean ± SE
Experimental: as §1, §2, §3, §4, §5

CEM = assay: In vitro cytotoxicity, growth inhibition by counting surviving cells, CEM; conditions: Homo sapiens, CCRF-CEM, cells incubated with the compound for 1 h, at least two experiments, read-out: IC50 (50% inhibitory concentration), Mean ± SE
Experimental: as §1, §2, §3, §4, §5

LoVo = assay: In vitro cytotoxicity, growth inhibition by SRB colorimetric assay, LoVo; conditions: Homo sapiens, cells incubated with the compound for 1 h, at least two experiments, read-out: IC50 (50% inhibitory concentration), Mean ± SE
Experimental: as §1, §2, §3, §4
^4 Growth inhibition determined by SRB colorimetric assay.

[1] = test system: panel of murine and human tumor cell lines; assay: In vitro cytotoxicity on a panel of murine and human tumor cell lines
Text: The compounds according to the invention are useful in methods of treatment of the human or animal body by therapy. They are useful as anti-tumor agents. They are useful in the treatment of leukemia and solid tumors, such as colon, colon-rectal, ovarian, mammary, prostate, lung, kidney and also melanoma tumors. A human can therefore be treated by a method comprising administering thereto a therapeutically effective amount of a compound of the invention. The condition of the human patient can thus be improved. The dosage to be given can be ascertained using known dosage ranges in the field of anthracyclines, modified by reference to the activity shown by the present compounds in in vitro and in vivo anti-tumor tests. Suitable dosages are generally in the range of 1 to 200 mg/m^2 body surface, preferably from 1 to 100 mg/m^2, depending on the nature and severity of the disease being treated and on the general condition of the patient. The compounds of formula I were tested and found active in vitro against a panel of murine and human tumor cell lines, and in vivo on disseminated P388/DX murine leukemia.
as §1

## CC(O)[C@]1(O)Cc2c(O)c3c(c(O)c2[C@@H](O[C@H]2C[C@H](N4CC4)[C@H](OS(C)(=O)=O)[C@H](C)O2)C1)C(=O)c1ccccc1C3=O (mixture of isomers) [Ia, 13(R/S)-Dihydro-4-Demethoxy-3'-Deamino-3'-Aziridinyl-4'-Methansulfonyl Daunorubicin]
L1210
  IC50: 3.76 ± 0.13 ng/mL
JURKAT
  IC50: 4.87 ± 0.7 ng/mL
CEM
  IC50: 5.86 ± 0.4 ng/mL
LoVo
  IC50: 20.3 ± 2 ng/mL
[1]
  cytotoxicity / in vitro activity in words: high cytotoxicity
